Key:
[1] = system: MEK; conditions: merlin-inducible schwannoma cells, inhibitor for 2 or 12 hours
Procedure: Merlin-inducible schwannoma cells were plated onto 6-well plates at a density of 1.5×10^4 cells per well. 1 μg/ml doxycyclin was added where stated. After 16 hours, an MEK activation inhibitor (UO126; Promega) was added for 2 or 12 hours. 0 means no addition of inhibitor. The cells were harvested and solubilized in 2×Laemmli buffer, and the proteins were separated on a 10% SDS polyacrylamide gel. The proteins were transferred to a membrane, and an immune blot was carried out either with the polyclonal p27^Kip1 antibody C-19 from rabbit or with the Rb-specific antibody C-15 (Santa Cruz). The actin-specific antibody I-19 was used as loading control.

[2] = system: NIH3T3 cells; experiment: Growth rate of NIH3T3 cells; format: cell-based, murine; conditions: 100 μg/ml, cell counts on the following 3 days
Procedure: A. Growth rate of NIH3T3 cells after addition of hyaluronan. 24-well plates were seeded in triplicate with NIH3T3 cells at a density of 0.5×10^4 cells. Where stated, the culture medium was treated the next day with 100 μg/ml hyaluranon (Healon). The cell counts were determined on each of the following 3 days.

[3] = system: Erk; experiment: PDGF-dependent phosphorylation of Erk; format: cell-based, rat; conditions: clone 54, serum starvation, doxycyclin 8 hours, PDGF 5 ng/ml 5 minutes
Procedure: The cells were used to seed 6-well plates at Low density and 24-well plates at high density, with or without 0.8% methylcellulose. The cells remained free from serum for 24 hours and were treated with doxycyclin or left untreated for the last 8 hours. Then, the cells were stimulated for 5 minutes with 5 ng/ml PDGF and subsequently harvested in 2×Laemmli sample buffer, and the cell extracts were separated on a 10% SDS polyacrylamide gel. After the proteins had been transferred to the membrane, immunoblots were prepared with a phospho-Erk-specific antibody, and the bound antibody was detected. As a control for uniform loading of the separating gel with Erk, the membrane was stripped (freed from antibody) and anti-Erk-blotted.
C. […] Cells of clone 54 were plated at high or low cell density, left to grow for 24 hours with serum starvation and treated during the last 8 hours with doxycyclin (+) or left untreated (−). Where stated, the cells were treated for 2 hours with hyaluronidase (HAase, 5 U/μl), for 10 minutes with solCD44wt and/or for 5 minutes with PDGF (5ng/ml). The proteins of the lysates were separated by means of SDS-PAGE, and immune blots were carried out with phospho-Erk and Erk-specific antibodies. Clone 63 gave the same results as all the experiments in FIG. 6.
C. […] Cells were grown at low cell density and subsequently treated with doxycyclin with serum starvation cells as shown in FIG. 6C and assayed for the PDGF-dependent phosphorylation of Erk. Where stated, HA (100 μg/ml) was present for 10 minutes and PDGF (5 ng/ml) was present for 5 minutes. Experiments A to C were also carried out with clone 63, and similar results were obtained.

[4] = system: RT4-D6P2T cells; experiment: Growth in culture vessels of merlin-inducible schwannoma clone 54; format: cell-based, rat; conditions: for merlin-dependent growth inhibition in confluent cell cultures: merlin expression induced by doxycyclin
Procedure: Growth in culture vessels: To determine the growth curves, each well of a 24-well plate was seeded with 5×10^3 cells (in FIG. 7: 2.5×10^3), and determinations in triplicate were carried out every 24 hours (days). Definition of the growth conditions:
1. Low cell density (=logarithmic or exponential growth) means a cell density of 500 cells per cm^2 24 hours after seeding.
2. high cell density (=confluent growth condition) is defined as a cell density of 5×10^3 cells per cm^2 24 hours after seeding.
A. The soluble extracellular domain of CD44 sequestrates different ligands of exponentially growing and confluent cells. In each case 3 wells of a 24-well plate were seeded in triplicate with cells of clone 54, and the cells were treated with doxycyclin in order to induce the expression of merlin. On day 1 (logarithmically growing cells) and on day 3 (confluent cells), 10 ng/ml of soluble extracellular CD44 domain, either of the wild type (solCD44 or solCD44wt) or of the glycosaminoglycan-binding mutant (solCD44mut), were added. As the control, cells were treated in the same manner without doxycylin (since the addition of solCD44 was ineffective, only one group of data is shown).
B. Hyaluronate delays growth. In each case 3 wells of a 24-well plate were seeded in triplicate with cells of clone 54. Doxycyclin and hyaluronate (100 μg/ml) were added as stated.

[5] = system: merlin; experiment: Immune blot for dephosphorylation of merlin in clone 54 lysates; format: cell-based, rat; conditions: exponentially growing clone 54 cells, 8 hours doxycyclin
Procedure: For the immunoprecipitation of merlin, the cells were grown to confluence in 10 cm dishes, washed once with ice-cold PBS and then placed on ice and lysed with 1 ml lysis buffer per plate (50 mM Tris pH 7.4, 150 mM NaCl, 3 mM MgCl2, 0.5% NP-40, 1 mM PMSF, 10 μg/aprotinin ml, 10 μg/ml leupeptin). The DNA was sheared using a gauge 26 needle. The lysate was clarified by centrifugation, and the supernatant was incubated with 5 μg/ml merlin antibody at 4° C. overnight with gentle rotation. The reaction was subsequently treated with 30 μl of protein A agarose (dianova) and left to rotate for a further 3 hours at 4° C. The immune complexes were washed 4 times with cold lysis buffer and separated in 50 μl 2×Laemmli sample buffer. The protein was dissolved in a 10% SDS-PAGE, and immunoblots were generated with a merlin-specific antibody. For the treatment with calf intestine phosphatase (CIP), the lysate was incubated for 1 hour at 30° C. with 1 unit CIP prior to the immunoprecipitation. The coimmunoprecipitation of merlin and CD44 was carried out analogously, except that a different lysis buffer was used (20 mM Tris pH 7.4, 50 mM NaCl, 3 mM MgCl2, 0.5% NP40). The lysates were preincubated for 2 hours with protein A/G-agarose (Dianova) to remove unspecifically binding components, whereupon 5 μg/ml CD44 antibody 5G8 was added and the reaction was allowed to rotate overnight. […]

[6] = system: p27^Kip1; experiment: Induction of p27Kip1 in NIH3T3 cells (immune blot); format: cell-based, murine; conditions: for level of cell division cycle inhibitor p27^Kip1: 30 minutes, hyaluronan 100 μg/ml or solCD44s 10 ng/ml
Procedure: B. Induction of p27^Kip1 by treatment with hyaluronan. […] The next day, they were treated either with 100 μg/ml of hyaluronan or with 10 ng/ml solCD44s, and the plates were incubated for 30 minutes. The cells were harvested in 2×Laemmli sample buffer, and an immune blot with a polyclonal, p27^Kip1-specific antibody from rabbit was carried out (C-19, Santa Cruz). A polyclonal actin-antibody from goat (I-19, Santa Cruz) was used as loading control.

Row | Compound | hypophosphorylated Rb [1] | level of p27^Kip1 [1] | growth rate of NIH3T3 cells [2] | PDGF-dependent phosphorylation of Erk / activation of merlin [3] | growth of clone 54 cells ([4]; hyaluronate 100 μg/ml, with doxycyclin) | phosphorylation state of merlin [5] | level of cell division cycle inhibitor p27^Kip1 [6] | induction of p21 and p27 ([6]; hyaluronate-induced activation of merlin) | merlin-dependent growth inhibition in confluent cell cultures [4] | effect on growth of cells without doxycyclin ([4]; control cells without doxycyclin, 10 ng/ml) | growth of cultures in the logarithmic growth phase ([4]; logarithmically growing cells, merlin induced by doxycyclin, soluble CD44 10 ng/ml)
1 | N#CC(=C(/N)Sc1ccccc1N)/C(C#N)=C(/N)Sc1ccccc1N [UO126] | increase | higher level |  |  |  |  |  |  |  |  | 
2 | hyaluronate |  |  | reduced their growth rate | blocks the PDGF-dependent phosphorylation of Erk | delays growth | Induced dephosphorylation of merlin | increased | induction of p21 and p27 |  |  | 
3 | hyaluronidase |  |  |  | destroys the ligand responsible for the activation of merlin |  |  |  |  | prevents the inhibition of growth |  | 
4 | solCD44wt: soluble extracellular CD44 domain of the wild type |  |  |  | nullifies blocking of the activation of merlin |  | Induced dephosphorylation of merlin | increased |  | growth inhibition is nullified | ineffective | growth inhibition is observed
